Legend:
TAK1/TAB1 = TAK1/TAB1 (Homo sapiens, UniProt O43318); assay: Inhibition of truncated TAK1-TAB1(unknown origin) using MKK7 as substrate by ALPHAScreen assay in presence of ATP; assay type: protein-complex assay
[1] = biological target: T1, Mitogen-activated protein kinase kinase kinase 7 (Homo sapiens, UniProt O43318); assay: Inhibition of TAK1 in human HCT116 cells assessed as inhibition of TNF-alpha-stimulated JNK phosphorylation; assay type: cell-based, HCT-116
T1 sequence (O43318 whole entry): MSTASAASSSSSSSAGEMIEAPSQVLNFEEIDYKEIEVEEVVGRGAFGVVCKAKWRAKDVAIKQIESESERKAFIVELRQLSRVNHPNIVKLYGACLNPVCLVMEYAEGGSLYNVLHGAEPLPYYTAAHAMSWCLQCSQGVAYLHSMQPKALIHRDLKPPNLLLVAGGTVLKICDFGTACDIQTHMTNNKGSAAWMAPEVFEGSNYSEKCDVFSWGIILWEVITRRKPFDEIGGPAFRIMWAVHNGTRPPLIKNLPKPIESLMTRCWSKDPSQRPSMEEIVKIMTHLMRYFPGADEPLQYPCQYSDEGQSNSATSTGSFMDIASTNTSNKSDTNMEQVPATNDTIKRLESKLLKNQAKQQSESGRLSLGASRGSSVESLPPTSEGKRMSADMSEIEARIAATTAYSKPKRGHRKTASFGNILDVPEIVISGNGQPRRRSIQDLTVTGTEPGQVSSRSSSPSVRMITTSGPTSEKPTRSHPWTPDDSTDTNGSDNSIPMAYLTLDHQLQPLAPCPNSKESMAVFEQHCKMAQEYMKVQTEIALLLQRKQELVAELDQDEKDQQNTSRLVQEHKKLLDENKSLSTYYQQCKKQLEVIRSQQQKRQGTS

[2] = Metabolic stability in human liver microsomes assessed as extraction ratio; assay type: ADME, Microsome; conditions: read-out: ERH
[3] = Clearance in mouse at 2 mg/kg, iv; assay type: ADME, organism-based; parameters: dose 2 mg/kg, route intravenous; conditions: in vivo
[4] = Half life in mouse at 2 mg/kg, iv; assay type: ADME, organism-based; parameters: dose 2 mg/kg, route intravenous; conditions: in vivo
[5] = Volume of distribution at steady state in mouse at 2 mg/kg, iv; assay type: ADME, organism-based; parameters: dose 2 mg/kg, route intravenous; conditions: in vivo, read-out: Vdss
[6] = Oral bioavailability in mouse at 20 mg/kg; assay type: ADME, organism-based; conditions: in vivo
[7] = AUC (0 to infinity) in mouse at 20 mg/kg, po; assay type: ADME, organism-based; parameters: time infinity, dose 20 mg/kg, route oral; conditions: plasma
[8] = Cmax in mouse at 20 mg/kg, po; assay type: ADME, organism-based; parameters: dose 20 mg/kg, route oral; conditions: in vivo
[9] = Metabolic stability in mouse liver microsomes assessed as extraction ratio; assay type: ADME, Microsome; conditions: read-out: ERH
[10] = AUC (0 to infinity) in mouse at 2 mg/kg, iv; assay type: ADME, organism-based; parameters: time infinity, dose 2 mg/kg, route intravenous; conditions: plasma
[11] = Permeability of the compound by PAMPA; assay type: ADME; conditions: read-out: permeability

Sequence of TAK1/TAB1 (Q15750 whole entry, one chain of several, the tested form may be a part): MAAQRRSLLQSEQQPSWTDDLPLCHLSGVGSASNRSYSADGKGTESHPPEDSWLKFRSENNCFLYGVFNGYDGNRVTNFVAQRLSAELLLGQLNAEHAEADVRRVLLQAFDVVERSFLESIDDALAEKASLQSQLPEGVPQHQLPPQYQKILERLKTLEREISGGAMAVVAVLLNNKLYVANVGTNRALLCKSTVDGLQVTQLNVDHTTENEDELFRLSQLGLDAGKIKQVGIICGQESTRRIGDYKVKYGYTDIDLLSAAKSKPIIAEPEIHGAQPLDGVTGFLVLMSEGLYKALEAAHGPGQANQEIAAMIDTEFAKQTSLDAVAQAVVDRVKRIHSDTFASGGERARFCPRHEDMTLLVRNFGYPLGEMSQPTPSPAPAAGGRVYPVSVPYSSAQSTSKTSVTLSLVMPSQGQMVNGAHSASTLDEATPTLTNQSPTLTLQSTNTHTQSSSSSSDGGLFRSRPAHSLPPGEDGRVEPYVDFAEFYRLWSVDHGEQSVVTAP

Row | IC50 (TAK1/TAB1) [nM] | IC50 [1] [nM] | Compound | also measured
1 | 2400 | 690 | CC(=O)N1CCC(n2cc(-c3cnc(N)c4oc(-c5cccc(N(C)C)c5)cc34)cn2)CC1 | –
2 | 2800 | 4400 | CC(=O)N1CCC(n2cc(-c3cnc(N)c4oc(-c5ccc(CO)cc5)cc34)cn2)CC1 | –
3 | 1500 | 1900 | CC(=O)N1CCC(n2cc(-c3cnc(N)c4oc(-c5ccc(CC#N)cc5)cc34)cn2)CC1 | –
4 | 250 | 370 | CC(=O)N1CCC(n2cc(-c3cnc(N)c4oc(-c5cccc(C#N)c5)cc34)cn2)CC1 | –
5 | 2800 | 1600 | CC(=O)N1CCC(n2cc(-c3cnc(N)c4oc(-c5cccc(C(F)(F)F)c5)cc34)cn2)CC1 | –
6 | 2800 | 1000 | CC(=O)c1cccc(-c2cc3c(-c4cnn(C5CCN(C(C)=O)CC5)c4)cnc(N)c3o2)c1 | –
7 | 530 | 3100 | CC(=O)N1CCC(n2cc(-c3cnc(N)c4oc(-c5cccc(C(N)=O)c5)cc34)cn2)CC1 | –
8 | 790 | 4000 | CC(=O)N1CCC(n2cc(-c3cnc(N)c4oc(-c5cccc(CN)c5)cc34)cn2)CC1 | –
9 | 850 | 470 | CC(=O)N1CCC(n2cc(-c3cnc(N)c4oc(-c5cccc(CO)c5)cc34)cn2)CC1 | –
10 | 1800 | 1000 | CC(=O)N1CCC(n2cc(-c3cnc(N)c4oc(-c5ccc(N)cc5)cc34)cn2)CC1 | –
11 | 270 | 500 | CC(=O)N1CCC(n2cc(-c3cnc(N)c4oc(-c5ccc(O)cc5)cc34)cn2)CC1 | –
12 | 750 | 1500 | CC(=O)N1CCC(n2cc(-c3cnc(N)c4oc(-c5ccccc5CO)cc34)cn2)CC1 | –
13 | 4300 | 1200 | CSc1cccc(-c2cc3c(-c4cnn(C5CCN(C(C)=O)CC5)c4)cnc(N)c3o2)c1 | –
14 | 4900 | 1100 | CC(=O)N1CCC(n2cc(-c3cnc(N)c4oc(-c5cccc(S(C)(=O)=O)c5)cc34)cn2)CC1 | –
15 | 1800 | – | CC(=O)N1CCC(n2cc(-c3cnc(N)c4oc(-c5cccc(S(N)(=O)=O)c5)cc34)cn2)CC1 | –
16 | 1400 | 1100 | CC(=O)N1CCC(n2cc(-c3cnc(N)c4oc(-c5cccc(S(=O)(=O)N(C)C)c5)cc34)cn2)CC1 | –
17 | 89 | 200 | CC(=O)N1CCC(n2cc(-c3cnc(N)c4oc(-c5cccc([N+](=O)[O-])c5)cc34)cn2)CC1 | –
18 | 770 | 510 | CC(=O)N1CCC(n2cc(-c3cnc(N)c4oc(-c5cccc(N)c5)cc34)cn2)CC1 | –
19 | 3200 | 9000 | CC(=O)Nc1cccc(-c2cc3c(-c4cnn(C5CCN(C(C)=O)CC5)c4)cnc(N)c3o2)c1 | –
20 | 61 | 610 | CC(=O)N1CCC(n2cc(-c3cnc(N)c4oc(-c5cccc(O)c5)cc34)cn2)CC1 | –
21 | 1800 | 1200 | COc1cccc(-c2cc3c(-c4cnn(C5CCN(C(C)=O)CC5)c4)cnc(N)c3o2)c1 | –
22 | 3200 | 2700 | COCCOc1cccc(-c2cc3c(-c4cnn(C5CCN(C(C)=O)CC5)c4)cnc(N)c3o2)c1 | –
23 | 3500 | 1800 | CC(=O)N1CCC(n2cc(-c3cnc(N)c4oc(-c5cccc(OC(F)(F)F)c5)cc34)cn2)CC1 | –
24 | 1100 | 520 | CC(=O)N1CCC(n2cc(-c3cnc(N)c4oc(-c5ccccc5)cc34)cn2)CC1 | –
25 | 710 | – | CC(=O)N1CCC(n2cc(-c3cnc(N)c4oc(-c5cccnc5)cc34)cn2)CC1 | –
26 | 480 | – | CC(=O)N1CCC(n2cc(-c3cnc(N)c4oc(-c5ccsc5)cc34)cn2)CC1 | –

More lines, now with the values behind:

Row | Compound | IC50 (TAK1/TAB1) [nM] | IC50 [1] [nM] | also measured
27 | CC(=O)N1CCC(n2cc(-c3cnc(N)c4oc(-c5ccc(OC(F)(F)F)cc5)cc34)cn2)CC1 | 3500 | 8000 | –
28 | CC(=O)N1CCC(n2cc(-c3cnc(N)c4oc(-c5ccc(C#N)cc5)cc34)cn2)CC1 | 2500 | 2800 | –
29 | CC(=O)N1CCC(n2cc(-c3cnc(N)c4oc(-c5ccc(C(=O)N(C)C)cc5)cc34)cn2)CC1 | > 30000 | – | –
30 | CC(=O)N1CCC(n2cc(-c3cnc(N)c4oc(-c5cccc6cnsc56)cc34)cn2)CC1 | 23 | 44 | hepatic extraction ratio [2]: 0.73; clearance [3]: 128 mL/min/kg; half-life [4]: 30 min; Vd [5]: 2.5 L/kg; bioavailability [6]: 11%; AUC(0-inf) [7]: 285 ng·h/mL; Cmax [8]: 1600 nM; hepatic extraction ratio [9]: 0.84; AUC(0-inf) [10]: 261 ng·h/mL
31 | CC(=O)N1CCC(n2cc(-c3cnc(N)c4oc(-c5cccc6ncsc56)cc34)cn2)CC1 | 13 | 10 | hepatic extraction ratio [2]: 0.62; hepatic extraction ratio [9]: 0.68
32 | CC(=O)N1CCC(n2cc(-c3cnc(N)c4oc(-c5cccc6nnsc56)cc34)cn2)CC1 | 4 | 12 | hepatic extraction ratio [2]: 0.68; hepatic extraction ratio [9]: 0.7
33 | CC(=O)N1CCC(n2cc(-c3cnc(N)c4oc(-c5csc6cnccc56)cc34)cn2)CC1 | 30 | 110 | hepatic extraction ratio [2]: 0.68; hepatic extraction ratio [9]: 0.72
34 | CC(=O)N1CCC(n2cc(-c3cnc(N)c4oc(-c5cn(C)c6cnccc56)cc34)cn2)CC1 | 18 | 340 | hepatic extraction ratio [2]: 0.64; hepatic extraction ratio [9]: 0.91
35 | CC(=O)N1CCC(n2cc(-c3cnc(N)c4oc(-c5cccc6ccccc56)cc34)cn2)CC1 | 1000 | 1200 | hepatic extraction ratio [2]: 0.66; hepatic extraction ratio [9]: 0.77
36 | CC(=O)N1CCC(n2cc(-c3cnc(N)c4oc(-c5csc6ccccc56)cc34)cn2)CC1 | 340 | 440 | hepatic extraction ratio [2]: 0.68; hepatic extraction ratio [9]: 0.85
37 | CC(=O)N1CCC(n2cc(-c3cnc(N)c4oc(-c5cnc6cnccn56)cc34)cn2)CC1 | 1400 | – | hepatic extraction ratio [2]: 0; hepatic extraction ratio [9]: 0.52
38 | Nc1ncc(-c2cnn(C3CCNCC3)c2)c2cc(-c3ccccc3)oc12 | 2700 | – | Papp [11]: < 1 ×10⁻⁶ cm/s
39 | Nc1ncc(-c2cnn(C3CCNCC3)c2)c2cc(-c3cccc4ccsc34)oc12 | 1200 | – | Papp [11]: < 1 ×10⁻⁶ cm/s
40 | CSc1ccc(-c2cc3c(-c4cnn(C5CCN(C(C)=O)CC5)c4)cnc(N)c3o2)cc1 | 17500 | 5200 | –
41 | CC(=O)N1CCC(n2cc(-c3cnc(N)c4oc(-c5ccc(S(C)(=O)=O)cc5)cc34)cn2)CC1 | 25700 | > 20000 | –
42 | CC(=O)N1CCC(n2cc(-c3cnc(N)c4oc(-c5ccc(NS(C)(=O)=O)cc5)cc34)cn2)CC1 | 4900 | – | –
43 | CC(=O)N1CCC(n2cc(-c3cnc(N)c4oc(-c5cnsc5)cc34)cn2)CC1 | 880 | – | –

Row | Compound | IC50 (TAK1/TAB1) [nM] | IC50 [1] [nM] | also measured
44 | CSc1ccccc1-c1cc2c(-c3cnn(C4CCN(C(C)=O)CC4)c3)cnc(N)c2o1 | 430 | 500 | –
45 | CC(=O)Nc1ccccc1-c1cc2c(-c3cnn(C4CCN(C(C)=O)CC4)c3)cnc(N)c2o1 | > 30000 | – | –
46 | CC(=O)N1CCC(n2cc(-c3cnc(N)c4oc(-c5ccccc5C#N)cc34)cn2)CC1 | 560 | 1700 | –
47 | CC(=O)N1CCC(n2cc(-c3cnc(N)c4oc(-c5ccccc5C(F)(F)F)cc34)cn2)CC1 | > 30000 | – | –
48 | CC(=O)c1ccccc1-c1cc2c(-c3cnn(C4CCN(C(C)=O)CC4)c3)cnc(N)c2o1 | 5400 | 3100 | –
49 | CC(=O)N1CCC(n2cc(-c3cnc(N)c4oc(-c5ccccc5C(N)=O)cc34)cn2)CC1 | 6000 | 4500 | –
50 | COCc1ccccc1-c1cc2c(-c3cnn(C4CCN(C(C)=O)CC4)c3)cnc(N)c2o1 | 1400 | 1800 | –
51 | CC(=O)N1CCC(n2cc(-c3cnc(N)c4oc(-c5ccccc5CC#N)cc34)cn2)CC1 | 250 | 530 | –
52 | CC(=O)N1CCC(n2cc(-c3cnc(N)c4oc(C5=CCNCC5)cc34)cn2)CC1 | 800 | – | –
53 | CC(=O)N1CCC(n2cc(-c3cnc(N)c4oc(C5=CCCCC5)cc34)cn2)CC1 | 460 | – | –
54 | CC(=O)N1CCC(n2cc(-c3cnc(N)c4oc(C5CCCCC5)cc34)cn2)CC1 | 650 | – | –
55 | CC(=O)N1CCC(n2cc(-c3cnc(N)c4oc(C5=CCCC5)cc34)cn2)CC1 | 1200 | – | –
56 | CC(=O)N1CCC(n2cc(-c3cnc(N)c4oc(C5CCCC5)cc34)cn2)CC1 | 2100 | – | –
57 | CC(=O)N1CCC(n2cc(-c3cnc(N)c4oc(-c5cn[nH]c5)cc34)cn2)CC1 | 130 | 9100 | –
58 | CC(=O)N1CCC(n2cc(-c3cnc(N)c4oc(-c5cnn(C)c5)cc34)cn2)CC1 | 1600 | – | –
59 | CC(=O)N1CCC(n2cc(-c3cnc(N)c4oc(-c5cnco5)cc34)cn2)CC1 | 1200 | – | –

— ChEMBL document CHEMBL2407040, “Discovery and optimization of 7-aminofuro[2,3-c]pyridine inhibitors of TAK1” (Bioorg Med Chem Lett, 2013)
